Data as given in patent US9862684B2, “Modulation of K2P channels” (The Regents of the University of California, priority 2013, dated 2018).
Substitutions are numbered along the chain they refer to.

How the values were obtained:
[1] = molecular target: T1, K2P2.1 (TREK-1) G137I (Mus musculus, UniProt P97438, G152I); assay: Two-electrode voltage clamp, Xenopus oocytes, C-type gate mutant G137I; format: cell-based, Murine
T1 construct: expressed in transfected cells; host or cells: Xenopus oocytes
T1 sequence (P97438 1-411 isoform P97438-2 G137I): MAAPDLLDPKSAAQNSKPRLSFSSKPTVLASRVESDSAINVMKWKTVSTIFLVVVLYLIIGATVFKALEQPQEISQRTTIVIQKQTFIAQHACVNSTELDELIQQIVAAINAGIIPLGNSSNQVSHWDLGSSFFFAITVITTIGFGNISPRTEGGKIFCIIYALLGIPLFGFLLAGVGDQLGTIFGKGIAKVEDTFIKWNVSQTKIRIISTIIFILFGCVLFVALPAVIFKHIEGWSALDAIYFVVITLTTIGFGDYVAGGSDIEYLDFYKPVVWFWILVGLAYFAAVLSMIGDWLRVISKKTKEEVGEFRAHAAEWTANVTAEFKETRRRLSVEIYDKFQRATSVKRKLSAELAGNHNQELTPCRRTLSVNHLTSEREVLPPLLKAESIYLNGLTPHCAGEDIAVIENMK
Experimental: (§1) I-V curves were measured by two-electrode voltage clamp of Xenopus oocytes in b, 90 mM [K^+]o. or c-e, 2 mM [K^+]o. […] Data (were measured at 20 mV (90 mM [K^+]o) or 0 mV (2 mM [K^+]o), normalized to basal channel activity, and fitted to the Hill equation. Error bars indicate s.e., n≧6, N≧2.
(§2) Murine K2P channels were cloned into pGEMHE/pMO {Bagriantsev, 2011}, IRES-GFP (Invitrogen), or pYES2-MET25 (high copy 2μ, URA3) {Minor, 1999} for expression in oocytes, HEK-293T cells, and yeast, respectively, using standard molecular biology procedures, and verified by DNA sequencing.
(§3) Two-electrode voltage clamp recordings were performed from defolliculated stage V-VI Xenopus oocytes 24-48 hours after injection with 0.015-6.0 ng cRNA, using microelectrodes (0.3-3.0 MΩ) filled with 3M KCl. Data was acquired using the GeneClamp 500B (MDS Analytical Technologies) amplifier controlled by the pClamp software (Molecular Devices), and digitized at 1 kHz using Digidata 1332A (MDS Analytical Technologies). Recording solutions (mM): 2K (96 NaCl, 2 KCl, 1.8 CaCl2, 2 MgCl2), 90K (90 KCl, 8 NaCl, 1.8 CaCl2, 2 MgCl2), were buffered 5 mM HEPES pH 7.4. For K2P recordings, currents we elicited by a 1 second long ramp from −150 to +50 mV from a holding potential of −80 mV (2K), or −100 to +50 mV from a holding potential of 0 mV (90K). […]

[2] = molecular target: T2, K2P2.1 (TREK-1) W275S (Mus musculus, UniProt P97438, W290S); assay: Two-electrode voltage clamp, Xenopus oocytes, C-type gate mutant W275S; format: cell-based, Murine
T2 construct: expressed in transfected cells; host or cells: Xenopus oocytes
T2 sequence (P97438 1-411 isoform P97438-2 W275S): T1 sequence (P97438 1-411 isoform P97438-2 G137I) with I137G, W275S
Experimental: as §1, §2, §3

[3] = molecular target: T3, Kv7.2 (KCNQ2) (Homo sapiens, UniProt O43526); assay: Two-electrode voltage clamp, Xenopus oocytes expressing Kv7.2 (KCNQ2); format: cell-based; conditions: ML67-33 at 100 μM; ML67 concentration not stated
T3 construct: expressed in transfected cells; host or cells: Xenopus oocytes
Experimental: FIG. 12 Exemplar I-V curves showing the effect of 100 μM ML67-33 Kv7.2 (KCNQ2) measured by two-electrode voltage clamp in Xenopus oocytes in 2 mM [K^+]o pH 7.4. Currents were elicited by a step protocol from −120 to 60 mV, in 20 mV increments, from a holding potential of −80 mV.
Two-electrode voltage clamp recordings were performed from defolliculated stage V-VI Xenopus oocytes 24-48 hours after injection with 0.015-6.0 ng cRNA, using microelectrodes (0.3-3.0 MΩ) filled with 3M KCl. Data was acquired using the GeneClamp 500B (MDS Analytical Technologies) amplifier controlled by the pClamp software (Molecular Devices), and digitized at 1 kHz using Digidata 1332A (MDS Analytical Technologies). Recording solutions (mM): 2K (96 NaCl, 2 KCl, 1.8 CaCl2, 2 MgCl2), 90K (90 KCl, 8 NaCl, 1.8 CaCl2, 2 MgCl2), were buffered 5 mM HEPES pH 7.4. For K2P recordings, currents we elicited by a 1 second long ramp from −150 to +50 mV from a holding potential of −80 mV (2K), or −100 to +50 mV from a holding potential of 0 mV (90K). For KCNQ2 recordings, currents were elicited by a step protocol from −120 to 60 mV, in 20 mV increments, from a holding potential of −80 mV. Patch-clamp recordings from HEK-293T cells were performed using microelectrodes (2-3 MΩ) filled with 1M KCl. Data was acquired using the Axopatch 200B amplifier controlled by pClamp software, and digitized at 1 kHz using Digidata 1332A. Recording solutions (mM): intracellular (145 KCl, 5 EGTA, 3 MgCl2,) extracellular (150 NaCl, 5 KCl, 3 MgCl2, 1 CaCl2) were buffered with 5 mM HEPES pH 7.2 and 7.4, respectively. Currents were elicited by a 1 second long ramp from −150 to +50 mV from a holding potential of −80 mV. Data were fitted with a modified Hill's equation: I=Imin+(Imax−Imin)/(1+10^((Log EC50−Log [C])*H)), where Imax and Imin are maximal and minimal current values, respectively, EC50 is a half-maximal effective concentration of the compound, and H is the Hill coefficient.

## CC1(C)c2cc(Cl)ccc2N(CCc2nnn[nH]2)c2ccc(Cl)cc21 [ML67-33, 2,7-dichloro-9,9-dimethyl-10-[2-(1H-tetrazol-5-yl)ethyl]acridine]
[1]
  response to ML67-33 activation (in words): completely resistant
[1]; at 150 μM
  Emax (fold) at 150 μM: 0.9 ± 0.1 at 150 μM fold
[2]
  EC50: 21.8 ± 1.3 µM
  Emax (fold): 5.1 ± 0.6 fold
[3]
  effect on Kv7.2 (KCNQ2) (in words): no effect
